ChEMBL document CHEMBL4334515, “Lignans from Saururus chinensis with Inhibitory Effects on Nitric Oxide Production” (J Nat Prod, 2019)

Tests used:
[1] = tested on: RAW264.7; assay: Cytotoxicity against mouse RAW264.7 cells assessed as effect on cell viability at 10 uM by CCK-8 assay; assay type: cell-based; settings: raw264.7, 10 µM
[2] = tested on: RAW264.7; assay: Inhibition of LPS-induced NO production in mouse RAW264.7 cells incubated for 24 hrs in presence of LPS by Griess reagent based assay; assay type: functional, cell-based; settings: RAW264.7, 24 h

IC50 [2] [µM]	SMILES	Activity [1]
10.4	C=CCc1cc(OC)c(O[C@H](C)[C@H](OC(C)=O)c2cc(OC)c(OC)c(OC)c2)c(OC)c1	Non-Toxic
16.9	C/C=C/c1cc(OC)c(O[C@H](C)[C@H](OC(C)=O)c2cc(OC)c(OC)c(OC)c2)c(OC)c1	Non-Toxic
8.6	COC/C=C/c1ccc(O[C@@H](C)C(=O)c2cc(OC)c(OC)c(OC)c2)c(OC)c1	Non-Toxic
	COC1=CC(=O)C2=C(C1=O)[C@@H](c1cc3c(cc1O)OCO3)[C@H](C)[C@@H](C)C2	Toxic
40.1	COc1cc([C@@H]2OC(=O)O[C@H]2C)cc(OC)c1C	Non-Toxic
14	C/C=C/c1cc(OC)c(O[C@@H](C)C(=O)c2cc(OC)c(OC)c(OC)c2)c(OC)c1	Non-Toxic
> 50	CC(C(=O)c1ccc2c(c1)OCO2)[C@H](C)Cc1ccc2c(c1)OCO2 (stereo not given in full)	Non-Toxic
46.1	C=CCc1cc(OC)c(O[C@H](C)[C@H](O)c2cc(OC)c(OC)c(OC)c2)c(OC)c1	Non-Toxic
5.6	C[C@H]1[C@@H]2c3cc4c(cc3O[C@]35OCOC3=CC(=O)[C@H](C[C@@H]1C)[C@H]25)OCO4	Non-Toxic
9.2	C[C@H]1[C@@H]2c3cc4c(cc3O[C@]35OCOC3=CC(=O)[C@@H](C[C@@H]1C)[C@H]25)OCO4	Non-Toxic
> 50	C[C@H]1[C@@H]2c3cc4c(cc3O[C@]35OCOC3=CC(=O)[C@@H](C[C@@H]1C)[C@@H]25)OCO4	Non-Toxic
23.7	C=CCc1cc(OC)c(O[C@@H](C)[C@@H](OC(C)=O)c2cc(OC)c3c(c2)OCO3)c(OC)c1	Non-Toxic
42.4	C[C@H](Cc1cc2c(cc1O)OCO2)[C@H](C)Cc1cc2c(cc1O)OCO2	Non-Toxic
> 50	C=CCc1cc(OC)c(OC)c(OC)c1	Non-Toxic
35.5	COC/C=C/c1cc(OC)c(O[C@@H](C)[C@@H](O)c2cc(OC)c3c(c2)OCO3)c(OC)c1	Non-Toxic
41.4	C[C@H](Cc1ccc2c(c1)OCO2)[C@H](C)Cc1cc2c(cc1O)OCO2 (relative stereo)	Non-Toxic
21.1	C/C=C/c1ccc(O[C@@H](C)[C@@H](O)c2ccc(O)c(OC)c2)c(OC)c1 [MACHILIN D]	Non-Toxic
20.3	COc1cc(C[C@@H](C)[C@@H](C)Cc2ccc(O)c(OC)c2)ccc1O [MESODIHYDROGUAIARETIC ACID]	Non-Toxic
> 50	C[C@@H]([C@H](C)[C@H](O)c1ccc2c(c1)OCO2)[C@H](O)c1ccc2c(c1)OCO2 [SAUCERNEOL I]	Non-Toxic

SMILES	IC50 [2] [µM]	Activity [1]
CC(Cc1ccc2c(c1)OCO2)[C@H](C)Cc1ccc2c(c1)OCO2 (stereo not given in full)	16.5	Non-Toxic
N=C(N)NN [PIMAGEDINE]	25.5	
